From ChEMBL document CHEMBL1201862, “PubChem BioAssay data set” (2004)
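Briefly, cells in 96-well plates were exposed to five compound concentrations for 48 h, and endpoints were estimated by linear interpolation. GI50 is the concentration that inhibits growth by half.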 Activity calls are given as the source filed them. Cut-off read from the data, not from the text of the source: active = GI50 up to about 1.1 µM and inactive = higher.

How the values were obtained:
Assay in all cases: NCI tumour cell line growth inhibition, 48 h
Malme-3M = tested on: Malme-3M
TK-10 = tested on: TK-10
OVCAR-3 = tested on: OVCAR-3
HOP-62 = tested on: HOP-62
LOX IMVI = tested on: LOX IMVI
UO-31 = tested on: UO-31
RXF 393 = tested on: RXF 393
SK-OV-3 = tested on: SK-OV-3
RPMI-8226 = tested on: RPMI-8226
K562 = tested on: K562
CCRF-CEM = tested on: CCRF-CEM
SNB-75 = tested on: SNB-75
SF-295 = tested on: SF-295
CAKI-1 = tested on: CAKI-1
OVCAR-5 = tested on: OVCAR-5
SR = tested on: SR

Measured: GI50

C[C@@H](c1ccccc1)N(CC#N)C1CCC[C@H]1O (some centres not stated)
inactive: Malme-3M > 100 µM | TK-10 > 100 µM | OVCAR-3 > 100 µM | HOP-62 > 100 µM | LOX IMVI > 100 µM | UO-31 > 100 µM | RXF 393 > 100 µM | SK-OV-3 > 100 µM | RPMI-8226 > 100 µM | K562 > 100 µM | CCRF-CEM > 100 µM | SNB-75 > 100 µM | SF-295 > 100 µM

N#Cc1cn(-c2c3ccccc3nc3ccccc23)c(=O)[nH]c1=O
inactive: Malme-3M 10.7 µM | TK-10 21.5 µM | OVCAR-3 8.02 µM | LOX IMVI 5.12 µM | UO-31 3.8 µM | SK-OV-3 3.6 µM | RPMI-8226 14 µM | K562 3.67 µM | CAKI-1 5.75 µM | CCRF-CEM 7.29 µM | OVCAR-5 13.8 µM | SNB-75 16.7 µM | SR 3.31 µM | SF-295 5.83 µM

COC(=O)C1CC(C(=O)OC)c2nc3cc([N+](=O)[O-])ccc3nc21 (configuration not stated)
inactive: Malme-3M > 100 µM | TK-10 > 100 µM | OVCAR-3 33.1 µM | HOP-62 > 52.8 µM | LOX IMVI 22.3 µM | UO-31 33.7 µM | RXF 393 31.6 µM | SK-OV-3 > 94 µM | RPMI-8226 26.1 µM | K562 14.7 µM | CAKI-1 59.8 µM | CCRF-CEM 9.53 µM | OVCAR-5 > 100 µM | SNB-75 > 61 µM | SF-295 25.5 µM

CC1(C)CC(=O)C/C(=N/c2ccc([N+](=O)[O-])cc2)C1
inactive: Malme-3M > 100 µM | TK-10 > 100 µM | OVCAR-3 76.4 µM | HOP-62 > 100 µM | LOX IMVI 19.2 µM | UO-31 54.6 µM | RXF 393 47.4 µM | SK-OV-3 > 100 µM | RPMI-8226 53.5 µM | K562 35.6 µM | CCRF-CEM 20.4 µM | OVCAR-5 > 100 µM | SNB-75 > 100 µM | SR 57 µM | SF-295 > 100 µM

CN1C2C=C(c3ccccc3)CC1CC2 (configuration not stated)
inactive: Malme-3M > 100 µM | TK-10 > 100 µM | OVCAR-3 > 100 µM | LOX IMVI > 100 µM | UO-31 > 100 µM | RXF 393 > 100 µM | SK-OV-3 > 100 µM | RPMI-8226 > 100 µM | K562 > 100 µM | CCRF-CEM > 100 µM | OVCAR-5 > 100 µM | SNB-75 56.1 µM | SR > 100 µM | SF-295 > 100 µM

CC(C)NC1CCCCC2c3cc(F)ccc3[C@]12O (some centres not stated)
inactive: Malme-3M > 100 µM | TK-10 > 100 µM | OVCAR-3 > 100 µM | HOP-62 > 100 µM | LOX IMVI > 100 µM | UO-31 > 100 µM | RXF 393 > 100 µM | SK-OV-3 > 100 µM | RPMI-8226 > 100 µM | K562 > 100 µM | CAKI-1 > 100 µM | CCRF-CEM > 100 µM | OVCAR-5 > 100 µM | SNB-75 > 100 µM | SF-295 > 100 µM

Cc1cc(=O)c2c(O)cc3c(c2o1)CC=C(COC1OC(COC2OC(CO)C(O)C(O)C2O)C(O)C(O)C1O)CO3 (configuration not stated)
inactive: Malme-3M > 100 µM | TK-10 > 100 µM | OVCAR-3 > 100 µM | HOP-62 > 100 µM | LOX IMVI > 100 µM | UO-31 > 100 µM | SK-OV-3 > 100 µM | K562 > 100 µM | CAKI-1 > 100 µM | CCRF-CEM > 100 µM | OVCAR-5 > 100 µM | SNB-75 > 100 µM | SR > 100 µM | SF-295 > 100 µM

CCO/C=C1\N=C(C(Cl)c2ccccc2)OC1=O (configuration not stated)
inactive: Malme-3M > 100 µM | TK-10 > 100 µM | OVCAR-3 > 100 µM | HOP-62 > 100 µM | LOX IMVI > 100 µM | UO-31 > 100 µM | RXF 393 > 100 µM | RPMI-8226 > 100 µM | K562 > 100 µM | CAKI-1 > 100 µM | CCRF-CEM > 100 µM | OVCAR-5 > 100 µM | SNB-75 > 100 µM | SF-295 > 100 µM

Cc1ccc(S(=O)(=O)c2c3nc4ccccc4nc3n3c2[nH]c2ccccc23)cc1
inactive: Malme-3M > 100 µM | TK-10 > 100 µM | OVCAR-3 > 100 µM | HOP-62 > 100 µM | LOX IMVI > 100 µM | UO-31 > 100 µM | SK-OV-3 > 100 µM | RPMI-8226 > 100 µM | K562 > 100 µM | CAKI-1 > 100 µM | CCRF-CEM > 100 µM | OVCAR-5 > 100 µM | SNB-75 > 100 µM | SR > 100 µM

CCOc1cccc2ccc[n+](CC)c12
inactive: Malme-3M > 100 µM | TK-10 > 100 µM | OVCAR-3 56.1 µM | HOP-62 > 100 µM | LOX IMVI 91.6 µM | UO-31 > 100 µM | RXF 393 > 100 µM | SK-OV-3 > 100 µM | RPMI-8226 > 100 µM | K562 25.1 µM | CCRF-CEM 55.8 µM | OVCAR-5 > 100 µM | SNB-75 > 100 µM | SF-295 45.7 µM

COc1cc2c(oc(=O)c3c4occc4cc(OC)c23)c2cccc(O)c12
inactive: Malme-3M > 100 µM | TK-10 > 100 µM | OVCAR-3 > 100 µM | HOP-62 > 100 µM | LOX IMVI > 100 µM | UO-31 > 100 µM | RXF 393 > 100 µM | SK-OV-3 > 100 µM | RPMI-8226 > 100 µM | K562 > 100 µM | CAKI-1 > 100 µM | CCRF-CEM > 100 µM | OVCAR-5 > 100 µM | SNB-75 83.6 µM | SF-295 > 100 µM

CC1(C)OC(=S)N(c2ccccc2)C12C=Cc1cc3ccccc3nc1S2 (configuration not stated)
inactive: Malme-3M > 100 µM | TK-10 > 100 µM | OVCAR-3 > 100 µM | HOP-62 > 100 µM | LOX IMVI 59 µM | UO-31 73.5 µM | RXF 393 55.6 µM | SK-OV-3 > 100 µM | RPMI-8226 33.7 µM | K562 33.4 µM | CCRF-CEM 29.9 µM | OVCAR-5 > 100 µM | SNB-75 97.1 µM | SR 22.4 µM

CC(=O)c1cccc(NCn2nnc3ccccc32)c1
inactive: Malme-3M > 100 µM | TK-10 > 100 µM | OVCAR-3 > 100 µM | HOP-62 > 100 µM | LOX IMVI > 100 µM | UO-31 > 100 µM | RXF 393 > 100 µM | SK-OV-3 > 100 µM | RPMI-8226 96.8 µM | K562 > 100 µM | CCRF-CEM > 100 µM | SNB-75 > 100 µM | SR 79.4 µM | SF-295 > 100 µM

C[C@@]12CCCC(=O)N1[C@@H](CO)C(c1ccccc1)O2 (some centres not stated)
inactive: Malme-3M > 100 µM | TK-10 > 100 µM | OVCAR-3 > 100 µM | HOP-62 > 100 µM | LOX IMVI > 100 µM | RXF 393 > 100 µM | RPMI-8226 > 100 µM | K562 > 100 µM | CAKI-1 > 100 µM | OVCAR-5 > 100 µM | SNB-75 > 100 µM | SF-295 > 100 µM
